Values of other authors as cited in article PMC3688238, “The effect of different dosing regimens of motesanib on the gallbladder: a randomized phase 1b study in patients with advanced solid tumors” (BMC Cancer, 2013).
Like-named read-outs stand apart in the source and are kept apart here.

System: gallbladder
Conditions: cited from earlier work

SMILES: COc1cc2c(Oc3ccc4[nH]c(C)cc4c3F)ncnc2cc1OCCCN1CCCC1 [Cediranib]
- Adverse events reported (phase 1 study, ref Laurie et al. [21]): Acute cholecystitis
- Adverse events reported (phase 2 study, ref Batchelor et al. [22]): Gallbladder obstruction, abdominal pain

SMILES: Cc1ccc(NC(=O)c2ccc(CN3CCN(C)CC3)cc2)cc1Nc1nccc(-c2cccnc2)n1 [Imatinib]
- Adverse events reported (case report, ref Breccia et al. [37]): Gallstones, gallbladder wall thickening, abdominal pain
- Adverse events reported (phase 1 study, ref Grant et al. [24]): Cholecystitis
- Adverse events reported (single-arm study, ref Yeh et al. [23]): Gallstones

SMILES: CNC(=O)c1cc(Oc2ccc(NC(=O)Nc3ccc(Cl)c(C(F)(F)F)c3)cc2)ccn1 [Sorafenib]
- Adverse events reported (case report, ref Sanda et al. [20]): Right upper abdominal pain, gallbladder edema, acute acalculous cholecystitis
- Adverse events reported (ref Nexavar European public assessment report [26]): Cholecystitis, cholangitis
- Adverse events reported (ref Nexavar US prescribing information [25]): Cholecystitis, cholangitis

SMILES: CCN(CC)CCNC(=O)c1c(C)[nH]c(/C=C2\C(=O)Nc3ccc(F)cc32)c1C [Sunitinib]
- Adverse events reported (case report, ref De Lima Lopes, Jr., et al. [18]): Acute emphysematous cholecystitis, right upper abdominal pain, gallbladder distension
- Adverse events reported (case report, ref Gomez-Abuin et al. [19]): Acute acalculous cholecystitis, right upper abdominal pain, gallbladder wall thickening
- Adverse events reported (single-arm study, ref Motzer et al. [17]): Acute cholecystitis
